# Results taken from US20260285850A1, “SUBSTITUTED OXAZOLIDINONES AND IMIDAZOLINONES AS HERBICIDES” (FMC CORPORATION, priority 2023, published 2026).
# What was measured:
# Format in all cases: in vivo
# [1] = system: barnyardgrass (Echinochloa crus-galli); assay: Test A preemergence soil spray, visual injury rating 0-100; conditions: 10 days, 0 = no effect, 100 = complete control
# Summary of the method: (§1)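 Grow plants in loam soil blended with sand. Apply formulated compound (non-phytotoxic solvent, surfactant) as a directed soil spray before emergence, or to plants at the one- to two-leaf stage after emergence. Hold in greenhouse 10 days, then rate injury visually versus untreated controls on a 0-100 scale.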
# [2] = system: blackgrass (Alopecurus myosuroides); assay: as above; conditions: 10 days, 0 = no effect, 100 = complete control
# Summary of the method: as §1
# corn (Zea mays) [3] = assay: as above; conditions: 10 days, 0 = no effect, 100 = complete control
# Summary of the method: as §1
# [4] = system: green foxtail (Setaria viridis); assay: as above; conditions: 10 days, 0 = no effect, 100 = complete control
# Summary of the method: as §1
# kochia (Bassia scoparia) [5] = assay: as above; conditions: 10 days, 0 = no effect, 100 = complete control
# Summary of the method: as §1
# [6] = system: oat, wild (wild oat, Avena fatua); assay: as above; conditions: 10 days, 0 = no effect, 100 = complete control
# Summary of the method: as §1
# [7] = system: palmer (palmer amaranth, palmer pigweed, Amaranthus palmeri); assay: as above; conditions: 10 days, 0 = no effect, 100 = complete control
# Summary of the method: as §1
# [8] = system: ragweed (common ragweed, Ambrosia artemisiifolia); assay: as above; conditions: 10 days, 0 = no effect, 100 = complete control
# Summary of the method: as §1
# [9] = system: ryegrass, Italian (italian ryegrass, Lolium multiflorum); assay: as above; conditions: 10 days, 0 = no effect, 100 = complete control
# Summary of the method: as §1
# soybean (Glycine max) [10] = assay: as above; conditions: 10 days, 0 = no effect, 100 = complete control
# Summary of the method: as §1
# [11] = system: wheat (Triticum aestivum); assay: as above; conditions: 10 days, 0 = no effect, 100 = complete control
# Summary of the method: as §1
# [12] = system: barnyardgrass (Echinochloa crus-galli); assay: Test A postemergence application, visual injury rating 0-100; conditions: 10 days
# Summary of the method: as §1
# [13] = system: blackgrass (Alopecurus myosuroides); assay: as above; conditions: 10 days
# Summary of the method: as §1
# corn (Zea mays) [14] = assay: as above; conditions: 10 days
# Summary of the method: as §1
# [15] = system: galium (catchweed bedstraw, Galium aparine); assay: as above; conditions: 10 days
# Summary of the method: as §1
# [16] = system: green foxtail (Setaria viridis); assay: as above; conditions: 10 days
# Summary of the method: as §1
# [17] = system: horseweed (Erigeron canadensis); assay: as above; conditions: Postemergence, 125 g ai/ha, 10 days; 0 is no effect, 100 is complete control
# Summary of the method: as §1
# kochia (Bassia scoparia) [18] = assay: as above; conditions: 10 days
# Summary of the method: as §1
# [19] = system: oat, wild (wild oat, Avena fatua); assay: as above; conditions: 10 days
# Summary of the method: as §1
# [20] = system: palmer (palmer amaranth, palmer pigweed, Amaranthus palmeri); assay: as above; conditions: 10 days
# Summary of the method: as §1
# [21] = system: ragweed (common ragweed, Ambrosia artemisiifolia); assay: as above; conditions: 10 days
# Summary of the method: as §1
# [22] = system: ryegrass, Italian (italian ryegrass, Lolium multiflorum); assay: as above; conditions: 10 days
# Summary of the method: as §1
# soybean (Glycine max) [23] = assay: as above; conditions: 10 days
# Summary of the method: as §1
# [24] = system: wheat (Triticum aestivum); assay: as above; conditions: 10 days
# Summary of the method: as §1
# [25] = system: barnyardgrass (Echinochloa crusgalli); assay: Test B flooded paddy test, visual plant response rating 0-100; conditions: 250 g ai/ha, Flood, applied to paddy water, evaluated after 13 days
# Summary of the method: (§2)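 Visual evaluation after 13 days. Water-applied treatment, 3 cm flood depth held constant, plants at 2-leaf stage at treatment.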
# [26] = system: ducksalad (Heteranthera limosa); assay: as above; conditions: 250 g ai/ha, Flood, applied to paddy water, evaluated after 13 days
# Summary of the method: as §2
# rice (Oryza sativa) = assay: as above; conditions: 250 g ai/ha, Flood, applied to paddy water, evaluated after 13 days
# Summary of the method: as §2
# [27] = system: sedge, umbrella (small-flower umbrella sedge, Cyperus difformis); assay: as above; conditions: 250 g ai/ha, Flood, applied to paddy water, evaluated after 13 days
# Summary of the method: as §2
# [28] = 31 g ai/ha, postemergence, 0 = no effect, 100 = complete control
# [29] = Postemergence, 125 g ai/ha, 0 is no effect, 100 is complete control
smiles,measurement,setting,value
CC(C)OC(=O)C1CCC(NC(=O)C2(C)CN(c3cc(F)cc(Cl)c3)C(=O)O2)C1 (stereo not drawn) [Compound 2],Barnyardgrass plant response rating (0-100),[1]; 31 g ai/ha,10
same,Barnyardgrass plant response rating (0 to 100 scale),[1]; 125 g ai/ha,90
same,Blackgrass plant response rating (0-100),[2]; 31 g ai/ha,0
same,Blackgrass plant response rating (0 to 100 scale),[2]; 125 g ai/ha,50
same,Corn plant response rating (0-100),corn (Zea mays) [3]; 31 g ai/ha,20
same,Corn plant response rating (0 to 100 scale),corn (Zea mays) [3]; 125 g ai/ha,70
same,"Foxtail, Green plant response rating (0-100)",[4]; 31 g ai/ha,0
same,"Foxtail, Green plant response rating (0 to 100 scale)",[4]; 125 g ai/ha,90
same,Kochia plant response rating (0-100),kochia (Bassia scoparia) [5]; 31 g ai/ha,0
same,Kochia plant response rating (0 to 100 scale),kochia (Bassia scoparia) [5]; 125 g ai/ha,70
same,"Oat, Wild plant response rating (0-100)",[6]; 31 g ai/ha,0
same,"Oat, Wild plant response rating (0 to 100 scale)",[6]; 125 g ai/ha,70
same,"Amaranth, Palmer plant response rating (0-100)",[7]; 31 g ai/ha,20
same,"Amaranth, Palmer plant response rating (0 to 100 scale)",[7]; 125 g ai/ha,80
same,Ragweed plant response rating (0-100),[8]; 31 g ai/ha,30
same,Ragweed plant response rating (0 to 100 scale),[8]; 125 g ai/ha,0
same,"Ryegrass, Italian plant response rating (0-100)",[9]; 31 g ai/ha,20
same,"Ryegrass, Italian plant response rating (0 to 100 scale)",[9]; 125 g ai/ha,80
same,Soybean plant response rating (0-100),soybean (Glycine max) [10]; 31 g ai/ha,0
same,Soybean plant response rating (0 to 100 scale),soybean (Glycine max) [10]; 125 g ai/ha,20
same,Wheat plant response rating (0-100),[11]; 31 g ai/ha,50
same,Wheat plant response rating (0 to 100 scale),[11]; 125 g ai/ha,90
same,Barnyardgrass plant response rating (0-100),[12]; [28],50
same,Barnyardgrass plant response rating (0 to 100 scale),[12]; [29],100
same,Blackgrass plant response rating (0-100),[13]; [28],60
same,Blackgrass plant response rating (0 to 100 scale),[13]; [29],70
same,Corn plant response rating (0-100),corn (Zea mays) [14]; [28],40
same,Corn plant response rating (0 to 100 scale),corn (Zea mays) [14]; [29],100
same,Galium plant response rating (0-100),[15]; [28],60
same,Galium plant response rating (0 to 100 scale),[15]; [29],90
same,"Foxtail, Green plant response rating (0-100)",[16]; [28],0
same,"Foxtail, Green plant response rating (0 to 100 scale)",[16]; [29],90
same,Horseweed plant response rating (0 to 100 scale),[17],0
same,Kochia plant response rating (0-100),kochia (Bassia scoparia) [18]; [28],0
same,Kochia plant response rating (0 to 100 scale),kochia (Bassia scoparia) [18]; [29],80
same,"Oat, Wild plant response rating (0-100)",[19]; [28],70
same,"Oat, Wild plant response rating (0 to 100 scale)",[19]; [29],90
same,"Amaranth, Palmer plant response rating (0-100)",[20]; [28],0
same,"Amaranth, Palmer / Pigweed, Palmer plant response rating (0 to 100 scale)",[20]; [29],50
same,Ragweed plant response rating (0-100),[21]; [28],20
same,Ragweed plant response rating (0 to 100 scale),[21]; [29],50
same,"Ryegrass, Italian plant response rating (0-100)",[22]; [28],50
same,"Ryegrass, Italian plant response rating (0 to 100 scale)",[22]; [29],90
same,Soybean plant response rating (0-100),soybean (Glycine max) [23]; [28],20
same,Soybean plant response rating (0 to 100 scale),soybean (Glycine max) [23]; [29],70
same,Wheat plant response rating (0-100),[24]; [28],80
same,Wheat plant response rating (0 to 100 scale),[24]; [29],90
same,"Plant response rating, Barnyardgrass (0 to 100 scale, 0 is no effect and 100 is complete control)",[25],95
same,"Plant response rating, Ducksalad (0 to 100 scale, 0 is no effect and 100 is complete control)",[26],65
same,"Plant response rating, Rice (0 to 100 scale, 0 is no effect and 100 is complete control)",rice (Oryza sativa),20
same,"Plant response rating, Sedge, Umbrella (0 to 100 scale, 0 is no effect and 100 is complete control)",[27],75
